Data from US7517857B2, “Immune-modulating peptide” (POSCO, priority 2002, dated 2009).
Where a SMILES comes first, the peptide text is derived from it. Where no end group is shown, it is not given here. [ ]: non-standard residue; d: D form.

Assays:
Format in all cases: cell-based
human neutrophils = assay: Superoxide generation in human neutrophils (cytochrome c reduction); conditions: for superoxide generation: 10 μM concentration; for O^2− (nmol/10^6 cells), superoxide generation: cytochrome c reduction; for superoxide generating activity: 100 nM of peptides
Method: Peripheral blood leukocyte concentrates were donated by the Ulsan Red Cross Blood Center (Ulsan, Korea). Human neutrophils were isolated according to the standard procedures of dextran sedimentation, hypotonic lysis of erythrocytes, and a lymphocyte separation medium gradient as described above (9). The isolated human neutrophils were then used promptly.
The activity of the peptides, WKYMVm, peptides of SEQ ID NOs: 1 to 24, and wkymvm on superoxide generation in human neutrophils was measured. Superoxide anion generation was quantified by measuring reduction of cytochrome c using a microtiter 96-well plate ELISA reader (Bio-Tekinstruments, EL312e, Winooski, Vt.) as described (14). The human neutrophils (1×10^6 cells/100 μl of RPMI 1640 medium per well of a 96-well plate) were preincubated with 50 μM cytochrome c at 37° C. for 1 min and then incubated with the indicated concentrations of peptides. The superoxide generation was measured as a change in light absorption at 550 nm over 5 minutes at 1 min intervals. From at least four independent experiments, peptides with active amino acids at each position were chosen.

FPR = molecular target: T1, FPR (Homo sapiens, UniProt P21462); assay: [Ca2+]i increase in FPR-expressing RBL-2H3 cells (fura-2); conditions: for EC50 (nM), intracellular calcium increase / EC50: fura-2 loaded; for EC50: read-out: EC50 (nM), intracellular calcium increase
T1 construct: expressed in transfected cells; host or cells: RBL-2H3 (rat basophilic leukemia) cells, G418-selected
T1 sequence (P21462 1-350): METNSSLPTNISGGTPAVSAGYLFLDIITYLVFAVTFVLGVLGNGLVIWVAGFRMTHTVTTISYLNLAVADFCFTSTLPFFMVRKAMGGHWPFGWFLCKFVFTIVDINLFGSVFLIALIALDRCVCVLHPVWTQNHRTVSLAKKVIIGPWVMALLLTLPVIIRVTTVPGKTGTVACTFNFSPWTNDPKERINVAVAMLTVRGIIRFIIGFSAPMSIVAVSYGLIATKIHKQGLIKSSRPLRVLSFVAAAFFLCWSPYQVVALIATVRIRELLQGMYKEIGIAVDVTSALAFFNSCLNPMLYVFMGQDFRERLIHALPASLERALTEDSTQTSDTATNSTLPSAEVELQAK

FPRL1 = molecular target: T2, FPRL1 (Homo sapiens, UniProt P25090); assay: [Ca2+]i increase in FPRL1-expressing RBL-2H3 cells (fura-2); conditions: for EC50: fura-2 loaded, read-out: EC50 (nM), intracellular calcium increase
T2 construct: expressed in transfected cells; host or cells: RBL-2H3 (rat basophilic leukemia) cells, G418-selected
T2 sequence (P25090 1-351): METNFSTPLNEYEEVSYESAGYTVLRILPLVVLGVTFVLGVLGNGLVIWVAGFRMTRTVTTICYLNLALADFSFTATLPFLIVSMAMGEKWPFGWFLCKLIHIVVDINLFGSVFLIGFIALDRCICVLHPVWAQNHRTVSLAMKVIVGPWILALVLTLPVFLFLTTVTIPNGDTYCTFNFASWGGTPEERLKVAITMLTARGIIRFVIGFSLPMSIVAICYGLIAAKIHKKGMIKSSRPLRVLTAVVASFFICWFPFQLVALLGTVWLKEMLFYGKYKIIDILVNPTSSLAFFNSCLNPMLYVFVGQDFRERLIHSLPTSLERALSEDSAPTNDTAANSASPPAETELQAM
Method: […] The level of [Ca^2+]i was determined fluorometrically by Grynkiewicz's method using fura-2/AM (15). Briefly, prepared cells were incubated with 3 μM fura-2/AM at 37° C. for 50 min in a fresh serum-free RPMI 1640 medium under continuous stirring. 2×10^6 cells were aliquoted for each assay in Ca^2+-free Locke's solution (154 mM NaCl, 5.6 mM KCl, 1.2 mM MgCl2, 5 mM HEPES, pH 7.3, 10 mM glucose, and 0.2 mM EGTA). Fluorescence changes at the dual excitation wavelengths of 340 nm and 380 nm and the emission wavelength of 500 nm were measured, and the calibrated fluorescence ratio was translated into [Ca^2+]i. The peak level of the increased [Ca^2+]i was monitored.
[…] The level of [Ca^2+]i was determined by the same procedures as above. The peak level of the increased [Ca^2+]i was monitored.

| EC50 (nM), intracellular calcium increase (FPR) | Compound | O^2− (nmol/10^6 cells), superoxide generation (human neutrophils; peptide 100 nM) | O^2− (nmol/10^6 cells), superoxide generation (human neutrophils; peptide 10 μM) | further results |
| --- | --- | --- | --- | --- |
| inactive | WKYMVW-NH2 [WKYMVW-NH2, Trp-Lys-Tyr-Met-Val-Trp-NH2] | 11.5 ± 1.62 nmol/10^6 cells | 56.8 ± 4.60 nmol/10^6 cells | superoxide generation (human neutrophils): more potent activity than WKYMVm |
| – | CSCC[C@H](NC(=O)[C@@H](N)Cc1ccc(O)cc1)C(=O)N[C@H](C(=O)N[C@H](CCSC)C(N)=O)C(C)C [YMVm-NH2, Tyr-Met-Val-D-Met-NH2] (H-YMV[dM]-NH2; N-terminus assumed) | 30.2 ± 2.74 nmol/10^6 cells | 41.8 ± 3.46 nmol/10^6 cells | – |
| – | Trp-Lys-Tyr-Met-(Phe/Trp)-D-Met-NH2 [WKYM(F/W)m-NH2] | 6.1 ± 0.77 nmol/10^6 cells | 45.6 ± 7.76 nmol/10^6 cells | [Ca^2+]i increasing activity (FPRL1): higher affinity to FPRL1 |
| – | CSCC[C@H](NC(=O)[C@H](CC(=O)O)NC(=O)[C@H](CCCCN)NC(=O)[C@@H](N)Cc1c[nH]c2ccccc12)C(=O)N[C@H](C(=O)N[C@H](CCSC)C(N)=O)C(C)C [WKDMVm-NH2, Trp-Lys-Asp-Met-Val-D-Met-NH2] (H-WKDMV[dM]-NH2; N-terminus assumed) | 16.3 ± 1.67 nmol/10^6 cells | 37.3 ± 2.78 nmol/10^6 cells | EC50 (FPR): 1330 ± 207 nM |
| – | CSCC[C@H](NC(=O)[C@H](Cc1c[nH]cn1)NC(=O)[C@H](CCCCN)NC(=O)[C@@H](N)Cc1c[nH]c2ccccc12)C(=O)N[C@H](C(=O)N[C@H](CCSC)C(N)=O)C(C)C [WKHMVm-NH2, Trp-Lys-His-Met-Val-D-Met-NH2] (H-WKHMV[dM]-NH2; N-terminus assumed) | 29.5 ± 7.71 nmol/10^6 cells | 39.3 ± 4.10 nmol/10^6 cells | – |
| – | CSCC[C@H](NC(=O)[C@H](Cc1ccc(O)cc1)NC(=O)[C@H](CCC(=O)O)NC(=O)[C@@H](N)Cc1c[nH]c2ccccc12)C(=O)N[C@H](C(=O)N[C@H](CCSC)C(N)=O)C(C)C [WEYMVm-NH2, Trp-Glu-Tyr-Met-Val-D-Met-NH2] (H-WEYMV[dM]-NH2; N-terminus assumed) | 52.9 ± 12.78 nmol/10^6 cells | 35.3 ± 2.88 nmol/10^6 cells | superoxide generating activity (human neutrophils): stimulated superoxide generation |
| – | CSCC[C@H](NC(=O)[C@H](Cc1c[nH]c2ccccc12)NC(=O)[C@H](CCCCN)NC(=O)[C@@H](N)Cc1c[nH]c2ccccc12)C(=O)N[C@H](C(=O)N[C@H](CCSC)C(N)=O)C(C)C [WKWMVm-NH2, Trp-Lys-Trp-Met-Val-D-Met-NH2] (H-WKWMV[dM]-NH2; N-terminus assumed) | 11.5 ± 0.97 nmol/10^6 cells | 65.0 ± 12.10 nmol/10^6 cells | superoxide generation (human neutrophils): more potent activity than WKYMVm; [Ca^2+]i increasing activity (FPR): more improved affinity for the FPR against the peptide WKYMVm; [Ca^2+]i increasing activity (FPRL1): higher affinity to FPRL1 |
| inactive | CSCC[C@H](NC(=O)[C@H](Cc1ccc(O)cc1)NC(=O)[C@H](CCCCN)NC(=O)[C@@H](N)Cc1c[nH]c2ccccc12)C(=O)NCC(=O)N[C@H](CCSC)C(N)=O [WKYMGm-NH2, Trp-Lys-Tyr-Met-Gly-D-Met-NH2] (H-WKYMG[dM]-NH2; N-terminus assumed) | 1.1 ± 0.05 nmol/10^6 cells | 27.3 ± 2.61 nmol/10^6 cells | [Ca^2+]i increasing activity (FPR): did not effect a [Ca^2+]i increase until 20 μM treatment; [Ca^2+]i increasing activity (FPRL1): showed [Ca^2+]i-increasing activity in FPRL1 cells, with a little lower affinity to FPRL1 |
| – | CSCC[C@H](NC(=O)[C@H](Cc1ccc(O)cc1)NC(=O)[C@H](CC(=O)O)NC(=O)[C@@H](N)Cc1c[nH]c2ccccc12)C(=O)N[C@H](C(=O)N[C@H](CCSC)C(N)=O)C(C)C [WDYMVm-NH2, Trp-Asp-Tyr-Met-Val-D-Met-NH2] (H-WDYMV[dM]-NH2; N-terminus assumed) | 25.8 ± 6.56 nmol/10^6 cells | 37.3 ± 5.66 nmol/10^6 cells | – |
| inactive | CSCC[C@H](N)C(=O)N[C@H](C(=O)N[C@H](CCSC)C(N)=O)C(C)C [MVm-NH2, Met-Val-D-Met-NH2] (H-Met-Val-[dM]-NH2) | – | – | EC50 (FPRL1): > 30000 nM |
| – | CSCC[C@H](NC(=O)[C@H](CCC(=O)O)NC(=O)[C@H](CCCCN)NC(=O)[C@@H](N)Cc1c[nH]c2ccccc12)C(=O)N[C@H](C(=O)N[C@H](CCSC)C(N)=O)C(C)C [WKEMVm-NH2, Trp-Lys-Glu-Met-Val-D-Met-NH2] (H-WKEMV[dM]-NH2; N-terminus assumed) | 4.1 ± 0.21 nmol/10^6 cells | 39.2 ± 4.71 nmol/10^6 cells | EC50 (FPR): 1330 ± 88.8 nM |
| – | CSCC[C@H](NC(=O)[C@H](Cc1ccc(O)cc1)NC(=O)[C@@H](N)CCCCN)C(=O)N[C@H](C(=O)N[C@H](CCSC)C(N)=O)C(C)C [KYMVm-NH2, Lys-Tyr-Met-Val-D-Met-NH2] | 36.0 ± 3.56 nmol/10^6 cells | 49.2 ± 5.82 nmol/10^6 cells | superoxide generating activity (human neutrophils): stimulated superoxide generation |
| – | CSCC[C@H](NC(=O)[C@H](Cc1ccc(O)cc1)NC(=O)[C@H](CCCCN)NC(=O)[C@@H](N)Cc1c[nH]c2ccccc12)C(=O)N[C@@H](Cc1ccc(O)cc1)C(=O)N[C@H](CCSC)C(N)=O [WKYMYm-NH2, Trp-Lys-Tyr-Met-Tyr-D-Met-NH2] (H-WKYMY[dM]-NH2; N-terminus assumed) | 25.8 ± 3.89 nmol/10^6 cells | 42.9 ± 3.34 nmol/10^6 cells | [Ca^2+]i increasing activity (FPRL1): higher affinity to FPRL1 |
| inactive | WKYMV-NH2 [WKYMV-NH2, Trp-Lys-Tyr-Met-Val-NH2] | 9.2 ± 0.55 nmol/10^6 cells | 25.6 ± 2.20 nmol/10^6 cells | – |
| – | CSCC[C@H](NC(=O)[C@H](Cc1ccc(O)cc1)NC(=O)[C@H](Cc1c[nH]cn1)NC(=O)[C@@H](N)Cc1c[nH]c2ccccc12)C(=O)N[C@H](C(=O)N[C@H](CCSC)C(N)=O)C(C)C [WHYMVm-NH2, Trp-His-Tyr-Met-Val-D-Met-NH2] (H-WHYMV[dM]-NH2; N-terminus assumed) | 20.7 ± 7.85 nmol/10^6 cells | 20.7 ± 7.85 nmol/10^6 cells | [Ca^2+]i increasing activity (FPR): more improved affinity for the FPR against the peptide WKYMVm |
| inactive | WKYMVG-NH2 [WKYMVG-NH2, Trp-Lys-Tyr-Met-Val-Gly-NH2] | 4.4 ± 0.54 nmol/10^6 cells | 27.3 ± 1.40 nmol/10^6 cells | – |
| inactive | WKYMVV-NH2 [WKYMVV-NH2, Trp-Lys-Tyr-Met-Val-Val-NH2] | 5.0 ± 0.21 nmol/10^6 cells | 36.3 ± 2.29 nmol/10^6 cells | – |
| inactive | CSCC[C@H](NC(=O)[C@H](Cc1ccc(O)cc1)NC(=O)[C@@H](N)CCCCN)C(=O)N[C@H](C(N)=O)C(C)C [KYMV-NH2, Lys-Tyr-Met-Val-NH2] (H-KYMV-NH2) | – | – | EC50 (FPRL1): > 30000 nM |
